Data as given in patent US12115248B2, “Devices and methods for delivering methane inhibiting compounds to animals” (Ruminant Biotech Corp Limited, priority 2022, dated 2024).
Values joined by “and” are separate entries in the source; they are usually repeats but may differ in a detail not shown here. Equal values may be shown once. “Also recorded” adds a separate entry of the source. Read-outs that look alike come from different tables or passages of the source. Marks after values point to notes of the source that are not given here.

How the values were obtained:
methane emissions [1] = assay: Animal study (Example 3): gas emissions in respiration chambers; format: in vivo, dairy beef heifers
Experimental: An animal study was conducted to determine methane emissions from an animal implanted with a bolus of the disclosure. The experiment was designed as an unbalanced, completely randomized design with three treatments and three repeated measurements over time in three periods 8 to 12 weeks apart.
Nineteen dairy beef heifers (312±14 kg live weight), including three spare animals, were selected from a mob of 50 based on behaviour traits and liveweight from a research farm in the Manawatu, New Zealand. They were assigned to one of three treatments: a bolus containing no bromoform (CONTROL; n=4); a bolus releasing bromoform at a rate of about 300-400 mg/day (LOW, n=6); or a bolus releasing about 450-580 mg/day (HIGH, n=6). SmaXtec boluses were administered at the same time to monitor rumen temperature as an animal health monitor and to complement the weekly blood samples.
The heifers were transported from research farm to a testing centre for diet adaptation and gas measurements using respiration chambers. The heifers were adapted to the environment of the cattle yards and the fresh cut pasture for 7 days before receiving their allocated treatment bolus. Gas measurements started 13 days after the boluses were administrated. Each heifer was in the respiration chambers for 48 hours during the period of gas measurements, which took two weeks for four measurement groups. At the end of the measurements in respiration chambers, the animals were transported back to research farm.
Fermentation gases methane (CH4), carbon dioxide (CO2) and hydrogen (H2) were quantified in four open-circuit respiration chambers at the New Zealand Ruminant Methane Measurement Centre (AgResearch, Palmerston North, New Zealand). Each chamber is 15.4 m^3 (3.5 m long×2 m wide×2.2 m high) with an air flow rate of around 1.0 m^3/min, which was continuously monitored by measuring differential pressure using a Venturi flowmeter. Temperature inside respiration chambers was approximately 20° C. and the relative humidity was on average approximately 79%. All gases were measured at ˜2.8-min intervals using a 4900C Continuous Emission analyser (Servomex Group Ltd, East Sussex, UK) and daily production of each gas was calculated from the difference between concentration flowing in- and out of the chamber (Pinares-Patiño et al., 2012). Respiration chambers were opened twice daily (˜20 min each time) for cleaning, feeding, faecal sampling and feed refusal collection. No measurements were performed during the period when chambers were opened, and missing data were interpolated by taking the average of the last 12 values ([…]) before the doors were opened.
Data from the first period of gas measurements was analysed using the ‘predictmeans’ and ‘Ime4’ packages in the statistical software R 4.0.3 (R Core Team, 2020). Data for dry matter intake and gas emissions for each heifer were averaged across the two measurement days. Heifer served as the experimental unit. The mixed model included treatment as fixed effect and respiration chamber nested in measurement group as random effect.

[2] = rats; cited from earlier work
methane emissions [3] = assay: Preliminary field trial (Example 14): gas emission measurements in respiration chambers; format: in vivo, heifers
Experimental: The following preliminary field trial is an example of the methane inhibiting capabilities of the bolus invention in a live animal trial using recognised methane analysis techniques. The bolus used in the trial is outlined in Table 14 and the trial time schedule is outlined in Table 16.
Five different total bromoform doses across two different diets were tested, giving a total of ten treatments (Table 15). […] Within each dose group, half of the animals were fed baleage (baled cut and covered pasture), and the other half were adapted to a diet of fresh cut ryegrass (New Zealand fresh pasture). Boluses were washed prior to administration to remove any bromoform that may have accumulated on the outside of the bolus. The additional boluses were administered on day 69 per os. (oesophagus). The second measurement session began 10 days after said bolus administration, with animals entering the respiration chambers for a 48-hour period in groups of four.
(§1) Liveweights of the animals were recorded prior to the first bolus administration and following each measurement period. Gas production of methane, hydrogen, and carbon dioxide was assessed every 3 min over a 48-hour period in respiration chambers using a 4900C Continuous Emission Analyser. […] Rumen fluid contents were sampled prior to bolus administration and following measurement periods in the respiration chambers. Rumen samples were assessed for pH and short-chain fatty acids (SCFAs) content, and were stored for bromoform residue analysis later on. Blood samples were collected 16 days prior to bolus administration, and on days 34 and 94 following the measurement periods. Blood samples were assessed biochemical constitution and for liver enzymes.
Emissions of methane (CH4), hydrogen (H2) and carbon dioxide (CO2) were assessed in respiration chambers over 48 hour measurements and converted to a per-day-total. […] The data are combined for both feeds during measurement session 2 (cf. schedule table 16). P-values were calculated by single-factor ANOVA and differences were deemed particularly significant for p-value <0.05.

[4] = in vivo; cited from earlier work
[5] = Preliminary field trial (Example 14): dry matter intake, liveweight, blood samples; format: in vivo, heifers
Experimental: as §1
The data are combined for both feed types during measurement session 2. […]

[6] = after 48 hour with holding period; cited from earlier work
[7] = mice; cited from earlier work
[8] = 260 mg/d (HIGH + 156), period 2

## BrC(Br)Br [bromoform]
Methane emissions [1]; HIGH, 450 mg/d
  H2: 20.08^a g/d
Methane emissions [1]; HIGH, about 450-580 mg/day
  CH4 production (g/day) decrease compared with CONTROL: more than 99%
  CH4 yield (g/kg dry matter intake) decrease compared with CONTROL: more than 99%
Methane emissions [1]; LOW, 300 mg/d
  H2: 20.60^a g/d
Methane emissions [1]; LOW, about 300-400 mg/day
  CH4 production (g/day) decrease compared with CONTROL: more than 99%
  CH4 yield (g/kg dry matter intake) decrease compared with CONTROL: more than 99%
[2]
  half-life in animals: 0.8 h
Methane emissions [3]; 156 mg/d (CON + 156), period 2
  CO2: 5666 ± 327 g/day
  H2: 7.9 ± 3.5 g/day
Methane emissions [3]; 156 mg/d (CON + 156), period 2, all animals, average ± standard error
  CH4: 48.7 ± 29.5 g/day
Methane emissions [3]; 156 mg/day dose group (CON+156)
  methane emissions of individual animals: about 0.2 g/d and ~0 g/d and 76 g/d
Methane emissions [3]; 156 mg/day, one animal with partial knockdown
  methane emissions as % of the average of the untreated control group: approximately 50%
Methane emissions [3]; 182 mg/d (LOW + 156), period 2
  CH4: 18.6 ± 18.2 g/day
  CO2: 5589 ± 295 g/day
  H2: 13.7 ± 4.7 g/day
Methane emissions [3]; 182 mg/d (LOW+156)
  methane inhibition, animals responding: full methane inhibition was observed for three of the four treated animals; also recorded: Partial inhibition was observed for 1 out of 4 animals
Methane emissions [3]; 182 mg/d, fourth animal
  methane emission compared to control animals: approximately 50%
Methane emissions [3]; 208 mg/d (MED + 156), period 2
  CH4: -0.3 ± 0.5 g/day
  CO2: 5011 ± 377 g/day
  H2: 17.2 ± 3.5 g/day
Methane emissions [3]; 208 mg/d or more
  methane inhibition: full methane inhibition
Methane emissions [3]; [8]
  CH4: -0.2 ± 0.3 g/day
  CO2: 5159 ± 308 g/day
  H2: 17 ± 3.4 g/day
Methane emissions [3]; Baleage, 156 mg/d
  CH4: 59.1 g/day
  CO2: 5251 g/day
  H2: 7.4 g/day
Methane emissions [3]; Baleage, 182 mg/d
  CH4: 0.9 g/day
  CO2: 5202 g/day
  H2: 13.3 g/day
Methane emissions [3]; Baleage, 208 mg/d
  CH4: -1.0 g/day
  CO2: 4919 g/day
  H2: 19.9 g/day
Methane emissions [3]; Baleage, 260 mg/d
  CH4: 0.3 g/day
  CO2: 4645 g/day
  H2: 12.7 g/day
Methane emissions [3]; Pasture, 156 mg/d
  CH4: 38.2 g/day
  CO2: 6081 g/day
  H2: 8.4 g/day
Methane emissions [3]; Pasture, 182 mg/d
  CH4: 36.2 g/day
  CO2: 5977 g/day
  H2: 14.1 g/day
Methane emissions [3]; Pasture, 208 mg/d
  CH4: 0.3 g/day
  CO2: 5104 g/day
  H2: 14.4 g/day
Methane emissions [3]; Pasture, 260 mg/d
  CH4: -0.7 g/day
  CO2: 5673 g/day
  H2: 21.3 g/day
Methane emissions [3]; cattle, about 378 kg
  effective minimal daily dose: 0.28 to 0.4 mg/kg/day
  minimum dose for an effective mitigation of methanogenesis: 104 to 156 mg/day
Methane emissions [3]; dose range of 0-104 mg/day, chamber session 1 (data not shown)
  methane inhibition: no substantial methane inhibition
Methane emissions [3]; doses equal to and greater than 156 mg/d
  methane inhibition, animals responding: 15 out of 16 animals
[4]
  level in milk: no significant increase
[5]; 156 mg/d (CON + 156)
  Average animal liveweight: 380 kg
[5]; 182 mg/d (LOW+156)
  Average animal liveweight: 387 kg
[5]; 208 mg/d (MED + 156)
  Average animal liveweight: 376 kg
[5]; 260 mg/d (HIGH + 156)
  Average animal liveweight: 369 kg
[5]; all tested doses
  Dry matter intake: not significantly different; also recorded: not significantly altered
[5]; in vivo
  Animal liveweight, treated versus untreated control: about the same
  blood data, treated versus untreated control: No differences
[5]; treatment group CON + 156
  Average dry matter intake: 5.54 kg/day
[5]; treatment group HIGH
  Average dry matter intake: 5.54 kg/day
[5]; treatment group HIGH + 260
  Average dry matter intake: 4.47 kg/day
[5]; treatment group LOW + 182
  Average dry matter intake: 5.15 kg/day
[5]; treatment group LOW, both feeds, session 2
  Average dry matter intake: 5.11 kg/day
[5]; treatment group MED
  Average dry matter intake: 5.72 kg/day
[5]; treatment group MED + 208
  Average dry matter intake: 3.86 kg/day
[6]
  residues in meat and tissue from slaughtered steers: no residues
[7]
  half-life in animals: 1.2 h
